In one data set the test system is human normal melanocytes. Briefly: melanin formation suppression test in human melanocytes (L-DOPA, absorbance 495 nm). It is filed as cell-based. The settings on record: 5 days, relative value, without addition of sample = 100. On the procedure: A melanin formation suppression test was performed using human melanocytes (manufactured by KURABO INDUSTRIES LTD.). That is, human normal melanocytes amplified in Medium 254 medium (human melanocyte medium added with HMGS, manufactured by KURABO INDUSTRIES LTD.) was added to a 96 well plate at 10^4 cells per well, and cultured in a carbon dioxide incubator adjusted to 5% (v/v) carbon dioxide gas at 37° C. for about 24 hr. Then, pure water or a sample (conagenin) dissolved in pure water was added thereto to a final concentration of 0.1 mM, 1.0 mM or 10 mM. As a positive control, kojic acid (manufactured by Sigma Ltd.) was added to the same concentration. The cells were cultured for 5 more days under the same conditions. To the recovered cells was added 50 μl of cell suspension (PBS buffer containing Triton X-100 at 0.1% (v/v)). After thorough suspending, the suspension was stood at 4° C. for 1 hr. Thereto was added 50 μl of 10 mM L-DOPA (manufactured by Nacalai Tesque), and the mixture was incubated at 37° C. for 1 hr. Thereafter, the absorbance at 495 nm was measured by a plate reader (multiscanplus MKII, manufactured by Japan Flow Laboratory), and the melanin formation amount was measured (shown in a relative value to the value without addition of sample as 100).

In the next data set the test system is B16 melanoma cells. Briefly: melanin formation suppression test, visual whitening and cell mass volume. Details: key to level of whitening: whitening high→++; whitening moderate→+; somewhat whitened→+−; no whitening→−. It is filed as cell-based, mouse. Conditions: 5 days; for level of whitening: visual evaluation; for change in cell mass volume: visual, cytotoxicity index. As to the method: A melanin formation suppression test was performed as follows using mouse melanoma cells. First, 2×10^4 B16 melanoma cells were plated in a 35 mm diameter dish containing Eagle's minimum nutrition medium (3 ml) supplemented with 10% (v/v) fetal bovine serum, and cultured in a carbon dioxide incubator adjusted to 5% (v/v) carbon dioxide gas at 37° C. for about 24 hr. Then, pure water or a sample dissolved in pure water was added thereto to a final concentration of 0.1 mM, 1.0 mM or 10 mM. As a positive control, kojic acid (manufactured by Sigma Ltd.) was added to the same concentration. The cells were cultured for 5 more days under the same conditions, treated with trypsin, and centrifuged to collect the cells in a 1.5 ml Eppendorf. The level of whitening of the cells was visually evaluated, and indicated: whitening high→++; whitening moderate→+; somewhat whitened→+−; no whitening→−. Simultaneously, changes in the cell mass volume was visually evaluated and used as a cytotoxicity index.

One molecule from patent US20090253794A1, “Fibroblast Activator, Collagen Production Promoter, Collagen Contraction Promoter, Hyaluronic Acid Production Promoter, ATP Production Promoter, Melanin Formation Inhibitor, and Agent for External Application to the Skin” (priority 2005, published 2009) can be followed below.

Molecules are shown by their SMILES. Entries after “also recorded” stand apart in the source; their conditions may differ.

Take `O=c1cc(CO)occ1O` [kojic acid, reference compound]: the melanin formation amount in the data set with human normal melanocytes (100 μM) stood at 105; in the data set with human normal melanocytes (1 mM) it was 88. The level of whitening result with B16 melanoma cells (0.1 mM) is recorded as “+−”; in the data set with B16 melanoma cells (1 mM) it was “+”. The “change in cell mass volume” value was “none” with B16 melanoma cells (0.1 mM), “none” in the data set with B16 melanoma cells (1 mM) and “cell death occurred; also recorded: yes (cell death)” in the data set on B16 melanoma cells (10 mM).
